Patent publication US20120035251A1, “THIOPHENE INHIBITORS OF IKK-B SERINE-THREONINE PROTEIN KINASE” (CHROMA THERAPEUTICS LD., priority 2009, published 2012)
pIC50: −log10 of the molar value. Where two headings read alike, the source gives them in different places. Each block holds one compound with its values, some of them ahead of it.

Tests used:
IKKβ = target: T1, IKKβ (Homo sapiens, UniProt O14920); experiment: IKKβ enzyme assay (Z'-LYTE, Invitrogen); type: biochemical
T1 construct: purchased Invitrogen (Paisley, UK)
T1 sequence (O14920 1-756): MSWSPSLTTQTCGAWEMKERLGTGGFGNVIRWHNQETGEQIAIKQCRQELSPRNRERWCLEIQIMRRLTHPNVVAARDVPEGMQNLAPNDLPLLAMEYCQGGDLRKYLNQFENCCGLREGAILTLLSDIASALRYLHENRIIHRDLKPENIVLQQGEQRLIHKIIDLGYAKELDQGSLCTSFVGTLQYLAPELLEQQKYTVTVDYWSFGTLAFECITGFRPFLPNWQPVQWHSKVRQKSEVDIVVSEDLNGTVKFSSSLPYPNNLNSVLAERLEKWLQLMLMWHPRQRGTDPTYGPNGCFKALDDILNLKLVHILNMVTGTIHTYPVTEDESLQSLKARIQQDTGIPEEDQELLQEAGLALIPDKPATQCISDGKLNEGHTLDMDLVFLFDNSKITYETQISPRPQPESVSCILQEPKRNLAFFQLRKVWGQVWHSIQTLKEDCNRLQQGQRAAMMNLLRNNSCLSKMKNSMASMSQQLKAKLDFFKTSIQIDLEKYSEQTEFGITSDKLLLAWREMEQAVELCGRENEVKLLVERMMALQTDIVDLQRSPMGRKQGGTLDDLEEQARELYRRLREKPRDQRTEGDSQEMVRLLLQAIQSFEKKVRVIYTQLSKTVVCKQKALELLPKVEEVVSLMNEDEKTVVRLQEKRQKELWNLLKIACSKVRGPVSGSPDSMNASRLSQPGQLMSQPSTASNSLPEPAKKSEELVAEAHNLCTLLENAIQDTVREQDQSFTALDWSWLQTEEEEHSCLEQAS
Protocol: The ability of compounds to inhibit IKKβ kinase activity was measured in an assay performed by Invitrogen (Paisley, UK). The Z′-LYTE™ biochemical assay employs a fluorescence-based, coupled-enzyme format and is based on the differential sensitivity of phosphorylated and non-phosphorylated peptides to proteolytic cleavage. The peptide substrate is labelled with two fluorophores—one at each end—that make up a FRET pair. In the primary reaction, the kinase transfers the gamma-phosphate of ATP to a single serine or threonine residue in a synthetic FRET-peptide. In the secondary reaction, a site-specific protease recognizes and cleaves non-phosphorylated FRET-peptides. Phosphorylation of FRET-peptides suppresses cleavage by the Development Reagent. Cleavage disrupts FRET between the donor (i.e., coumarin) and acceptor (i.e. fluorescein) fluorophores on the FRET-peptide, whereas uncleaved, phosphorylated FRET-peptides maintain FRET. A […] method, which calculates the ratio (the Emission Ratio) of donor emission to acceptor emission after excitation of the donor fluorophore at 400 nm, is used to quantitate reaction progress.
The final 10 μL Kinase Reaction consists of 0.9-8.0 ng IκBKB (IKKβ), 2 μM Ser/Thr 05 Peptide and ATP in 50 mM HEPES pH 7.5, 0.01% BRIJ-35, 10 mM MgCl2, 1 mM EGTA. The assay is performed at an ATP concentration at, or close to the Km. After the 60 minute Kinase Reaction incubation at room temperature, 5 μL of a 1:128 dilution of Development Reagent is added. The assay plate is incubated for a further 60 minutes at room temperature and read on a fluorescence plate reader.
Duplicate data points are generated from a 1/3 log dilution series of a stock solution of test compound in DMSO. Nine dilutions steps are made from a top concentration of 10 μM, and a ‘no compound’ blank is included. Data is collected and analysed using XLfit software from IDBS. The dose response curve is curve fitted to model number 205 (sigmoidal dose-response model). From the curve generated, the concentration giving 50% inhibition is determined and reported.

[1] = system: TNF-α production in human whole blood; experiment: LPS-stimulation of human whole blood, TNF-α by ELISA; type: cell-based; settings: for IC50: LPS-stimulated human whole blood, TNF-α, read-out: IC50 (nM) Human Whole Blood
Protocol: Whole blood was taken by venous puncture using heparinised vacutainers (Becton Dickinson) and diluted in an equal volume of RPMI1640 tissue culture media (Sigma). 100 μl was plated in V-bottomed 96 well tissue culture treated plates. 2 hours after the addition of the inhibitor in 100 μlof RPMI1640 media, the blood was stimulated with LPS (E coli strain 005:B5, Sigma) at a final concentration of 100 ng/ml and incubated at 37° C. in 5% CO2 for 6 hours. TNF-α levels were measured from cell-free supernatants by sandwich ELISA (R&D Systems #QTA00B).

[2] = system: U937 (monocyte cell line) cells; experiment: Intact cell accumulation assay, U937 cells; type: in vitro ADME; settings: 6 μmol/L compound
Protocol: (§1) Cells (4×10^4/mL) were incubated at 37° C. in culture medium containing 6 μmol/L compound in a 5% (v/v) CO2-humidified atmosphere. Incubations were terminated after 6 h by centrifugation of 25 mL aliquots of the cell suspension at 1500 rpm for 5 min at 4° C. 0.2 mL samples of the culture media supernatants were added to four volumes of acetonitrile. After decanting the supernatant, the residual cell pellet (10^6 cells) was extracted into 1 mL of acetonitrile. Samples were then analyzed for the ester and acid metabolite at room temperature by LC/MS/MS (Sciex API3000). Chromatography was based on a MeCN (75×21 mm) column with a 5% to 95% (v/v) acetonitrile/water, 0.1% (v/v) formic acid mobile phase. For the zero time samples, the cell suspension was chilled and centrifuged as soon as the ester had been added and then extracted into acetonitrile as described. Levels in cells are expressed as ng/mL.

[3] = system: HUT78 (non-monocyte cell line) cells; experiment: Intact cell accumulation assay, HUT78 cells; type: in vitro ADME; settings: 6 μmol/L compound
Protocol: as §1

[4] = system: TNF-α production in THP-1 cells; experiment: LPS-stimulation of THP-1 cells, TNF-α by ELISA; type: cell-based; settings: Homo sapiens; for pIC50: THP-1, read-out: Inhibition of TNF-α production in THP-1 cells (IC50); for IC50: LPS-stimulated THP-1 cells, TNF-α, read-out: IC50 (nM) THP-1
Protocol: THP-1 cells were plated in 100 μl at a density of 4×10^4 cells/well in V-bottomed 96 well tissue culture treated plates and incubated at 37° C. in 5% CO2 for 16 hours. 2 hours after the addition of the inhibitor in 100 μl of tissue culture media, the cells were stimulated with LPS (E coli strain 005:B5, Sigma) at a final concentration of 1 μg/ml and incubated at 37° C. in 5% CO2 for 6 hrs. TNF-α levels were measured from cell-free supernatants by sandwich ELISA (R&D Systems #QTA00B).

[5] = compound as drawn (Ester for the Example 1 row), read-out: Inhibition of IKKβ (IC50 nM)
[6] = read-out: IC50 (nM) IKKβ Enzyme

Structure (SMILES): CC(C)C[C@H](NCc1ccc(CCc2cc(C(N)=O)c(NC(N)=O)s2)cc1)C(=O)OC1CCCC1 [Example 3, Cyclopentyl N-(4-{2-[4-carbamoyl-5-(carbamoylamino)-2-thienyl]ethyl}benzyl)-L-leucinate]
IC50 (IKKβ; [6]): > 5000 nM | IC50 [1]: 500 to 5000 nM | IC50 [4]: > 5000 nM

Structure (SMILES): CC(C)C[C@H](NCc1ccc(C#Cc2cc(C(N)=O)c(NC(N)=O)s2)cc1)C(=O)OC1CCCC1 [Example 4, Cyclopentyl N-(4-{[4-carbamoyl-5-(carbamoylamino)-2-thienyl]ethynyl}benzyl)-L-leucinate]
IC50 (IKKβ; [6]): > 5000 nM | IC50 [1]: 500 to 5000 nM | IC50 [4]: 500 to 5000 nM

Structure (SMILES): NC(=O)Nc1sc(Cc2ccccc2)cc1C(N)=O [reference compound]
IC50 (IKKβ; [5]): 486 nM | Ratio of whole blood IC50 to enzyme IC50 [1]: >20 | inhibition at 10 µM ([1]; Homo sapiens, @10 μM, read-out: Inhibition of TNF-α production in human whole blood, % at single concentration): 28% | pIC50 [4]: 5.57

Continued, values first:

IC50 (IKKβ; Acid: the acid of the drawn ester (Example 1), read-out: Inhibition of IKKβ (IC50 nM), Acid): 369 nM | IC50 (IKKβ; [5]): 10000 nM | IC50 (IKKβ; [6]): > 5000 nM | Ratio of whole blood IC50 to enzyme IC50 [1]: 0.05 | pIC50 ([1]; Homo sapiens, read-out: Inhibition of TNF-α production in human whole blood (IC50)): 6.30 | IC50 [1]: < 500 nM | Concentration in U937 cell line ([2]; 0 hrs incubation): 420 ng/10^6 cells | Concentration in U937 cell line ([2]; 6 hrs incubation): 217 ng/10^6 cells | Concentration in HUT78 cell line ([3]; 0 hrs incubation): 466 ng/10^6 cells | Concentration in HUT78 cell line ([3]; 6 hrs incubation): 465 ng/10^6 cells | pIC50 [4]: 5.71 | IC50 [4]: 500 to 5000 nM
Structure (SMILES): CC(C)C[C@H](NCc1ccc(Cc2cc(C(N)=O)c(NC(N)=O)s2)cc1)C(=O)OC1CCCC1 [Example 1, Cyclopentyl N-(4-{[4-carbamoyl-5-(carbamoylamino)-2-thienyl]methyl}benzyl)-L-leucinate]

IC50 (IKKβ; [6]): 500 to 5000 nM | IC50 [1]: > 5000 nM | IC50 [4]: > 5000 nM
Structure (SMILES): CC(C)C[C@H](NCc1ccc(Cc2cc(C(N)=O)c(NC(N)=O)s2)cc1)C(=O)OC(C)(C)C [Example 2, tert-Butyl N-(4-{[4-carbamoyl-5-(carbamoylamino)-2-thienyl]methyl}benzyl)-L-leucinate]

IC50 (IKKβ; [6]): < 500 nM | Concentration in U937 cell line ([2]; 0 hrs incubation): 68 ng/10^6 cells | Concentration in U937 cell line ([2]; 6 hrs incubation): 286 ng/10^6 cells | Concentration in HUT78 cell line ([3]; 0 hrs incubation): 0 ng/10^6 cells
Structure (SMILES): CC(C)C[C@H](NCc1ccc(Cc2cc(C(N)=O)c(NC(N)=O)s2)cc1)C(=O)O [Example 5, N-(4-{[4-Carbamoyl-5-(carbamoylamino)-2-thienyl]methyl}benzyl)-L-leucine]

IC50 (IKKβ; [6]): 500 to 5000 nM
Structure (SMILES): CC(C)C[C@H](NCc1ccc(CCc2cc(C(N)=O)c(NC(N)=O)s2)cc1)C(=O)O [Example 6, N-(4-{2-[4-Carbamoyl-5-(carbamoylamino)-2-thienyl]ethyl}benzyl)-L-leucine]
